Values of other authors in patent US10653626B2, “Powder for oral suspension containing lamotrigine” (Shanghai Aucta Pharmaceuticals Co., Ltd., priority 2016, dated 2020).

Solubility in water: insoluble in water
SMILES: Nc1nnc(-c2cccc(Cl)c2Cl)c(N)n1 [Lamotrigine, 6-(2,3-dichlorophenyl)-1,2,4-triazine-3,5-diamine]
